One compound from paper PMC10180078, “In Silico and In Vitro Assessment of Carbonyl Reductase 1 Inhibition Using ASP9521—A Potent Aldo-Keto Reductase 1C3 Inhibitor with the Potential to Support Anticancer Therapy Using Anthracycline Antibiotics” (Molecules, 2023) can be followed below.

The target in this experiment is T1, carbonyl reductase 1 (CBR1) (Homo sapiens, UniProt P16152).
T1 construct: human recombinant CBR1 expressed in Escherichia coli Rosetta (DE3)
T1 sequence (P16152 2-277): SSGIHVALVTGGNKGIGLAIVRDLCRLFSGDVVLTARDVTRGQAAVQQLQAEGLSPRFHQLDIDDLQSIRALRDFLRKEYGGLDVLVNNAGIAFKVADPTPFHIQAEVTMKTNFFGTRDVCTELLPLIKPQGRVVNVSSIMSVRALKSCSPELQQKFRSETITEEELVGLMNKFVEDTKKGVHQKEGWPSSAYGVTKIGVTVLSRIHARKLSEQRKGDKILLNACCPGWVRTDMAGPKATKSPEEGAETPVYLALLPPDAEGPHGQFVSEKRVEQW
Description: recombinant CBR1 inhibition, menadione substrate, NADPH oxidation monitored at […] nm. In kind it is biochemical.

The IC50 is the concentration that inhibits the measured activity by half. For `COc1ccc2[nH]c(C(=O)N3CCC(CC(C)(C)O)CC3)cc2c1` [ASP9521], the IC50 worked out at 44 µM.
